# US11279712B2, “Macrocyclic compounds that inhibit MCL-1 protein” (AMGEN INC., priority 2017, dated 2022)
# pIC50: −log10 of the molar value. Like-named read-outs stand apart in the source and are kept apart here.
# What was measured:
# [1] = target: Mcl-1/Bim interaction (recombinant human Mcl-1 residues 171-327) (Homo sapiens (Human), UniProt Q07820); assay: Cell Free Mcl-1:Bim Affinity Assay (Mcl-1 HTRF); assay type: binding; conditions: TR-FRET, 0.1 nM Mcl-1(171-327), 0.05 nM biotin-Bim(51-76)
# Sequence of Mcl-1/Bim interaction (recombinant human Mcl-1 residues 171-327) (Q07820 171-327): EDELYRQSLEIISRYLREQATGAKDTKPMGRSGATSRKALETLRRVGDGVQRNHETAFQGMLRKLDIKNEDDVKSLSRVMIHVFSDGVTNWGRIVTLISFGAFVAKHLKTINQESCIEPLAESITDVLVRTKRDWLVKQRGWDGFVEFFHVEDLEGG
# Protocol: Cell Free Mcl-1:Bim Affinity Assay (Mcl-1 HTRF)
# The inhibition of the Mcl-1/Bim interaction was measured using a time-resolved fluorescence resonance energy transfer (TR-FRET) assay. The recombinant human Mcl-1 (C-terminally 6×His tagged Mcl-1 containing residues 171-327) was generated at Amgen Inc (Thousand Oaks, Calif.). A biotinylated peptide derived from human Bim (residues 51-76) was purchased from CPC Scientific (San Jose, Calif.). The TR-FRET assay was conducted in a 384-well white OptiPlate™ (PerkinElmer, Waltham, Mass.) in a total volume of 40 μL. The reaction mixture contained 0.1 nM Mcl-1(171-327), 0.05 nM biotin-Bim(51-76), 0.05 nM LANCES Eu-W1024 Anti-6×His (PerkinElmer), 0.072 nM Streptavidin-Xlent (Cisbio, Bedford, Mass.), and serially diluted test compounds in the binding buffer of 20 mM Hepes, pH 7.5, 150 mM NaCl, 0.016 mM Brij®35, and 1 mM dithiothreitol. Test compounds were pre-incubated with Mcl-1(171-327) and biotin-Bim (51-76) for 60 min before addition of the detection mixture (LANCE® Eu-W1024 Anti-6×His and Streptavidin-Xlent). The reaction plates were further incubated overnight and then were read on an Envision® multimode reader (PerkinElmer). Fluorescence signals were measured at 620 nm (40-nm bandwidth) and 665 nm (7.5-nm bandwidth) with a 60 μs delay after excitation at 320 nm (75-nm bandwidth). The signal ratio at 665/620 nm corresponded to the Mcl-1/Bim interaction and was used in all data analyses. The IC50 values of test compounds were determined from duplicate data by analyzing competition curves using a four-parameter sigmoidal model in GraphPad Prism (GraphPad Software, San Diego, Calif.) or in Genedata Screener® (Genedata, Basel, Switzerland).
# [2] = tested on: OPM-2 human multiple myeloma cell line; assay: Cell Viability Assay (OPM-2 10 FBS); assay type: cell-based; conditions: OPM-2 cells, CellTiter-Glo, read-out: OPM-2 10% FBS IC50 IP
# Protocol: Cell Viability Assay (OPM-2 10 FBS)
# The human multiple myeloma cell line, OPM-2, was cultured in complete growth medium containing RPMI 1640 and 10% fetal bovine serum (FBS). Cells were seeded into 384-well plates at 3000 cells/well density in complete growth medium containing 10% FBS, and incubated for 16 h with serially diluted test compounds in a 37° C. incubator with 5% CO2. Cell viability was tested using CellTiter-Glo® assay (Promega, Madison, Wis.) according to the manufacturer recommendations. Luminescence was determined using an EnVision® Multilabel plate reader 25 min after the addition of detection reagent. IC50 values were then calculated with Xlfit using a logistical 4-parameter fit model in GraphPad Prism (GraphPad Software, San Diego, Calif.) or in Genedata Screener® (Genedata, Basel, Switzerland).
pIC50 [1],"pIC50 ([2]; Homo sapiens, OPM-2, 16 h)",pIC50 ([2]; 16 h),Compound
9.97,,6.03,"C[C@@H]1[C@@H](C)CCC[C@H](C(=O)O)[C@@H]2CC[C@H]2CN2C[C@@]3(CCCc4cc(Cl)ccc43)COc3ccc(cc32)C(=O)NS1(=O)=O (single isomer, unassigned) [Example 52]"
9.17,,5.15,"CC[C@@H]1CCCC[C@H](CO)[C@@H]2CC[C@H]2CN2C[C@@]3(CCCc4cc(Cl)ccc43)COc3ccc(cc32)C(=O)NS1(=O)=O (single isomer, unassigned) [Example 85]"
8.80,,5.52,"C[C@H]([C@H]1CCC[C@H](C)[C@@H](C)S(=O)(=O)NC(=O)c2ccc3c(c2)N(C[C@@H]2CC[C@H]21)C[C@@]1(CCCc2cc(Cl)ccc21)CO3)N1CCOCC1 (single isomer, unassigned) [Example 79]"
9.03,,6.11,"C[C@@H]1[C@@H](C)CCC[C@H](CN2CC3(CCCN3C)C2)[C@@H]2CC[C@H]2CN2C[C@@]3(CCCc4cc(Cl)ccc43)COc3ccc(cc32)C(=O)NS1(=O)=O (single isomer, unassigned) [Example 50]"
7.85,,< 4.48,"C[C@@H]1[C@@H](C)CCC[C@H](C)[C@@H]2CC[C@H]2CN2C[C@@]3(CCCc4cc(Cl)ccc43)COc3ccc(cc32)C(=O)NS1(=O)=O (single isomer, unassigned) [Example 89]"
,5.82,,C[C@@H]1[C@@H](C)CCC[C@H](CN2CCN3CCN(C(=O)OC(C)(C)C)C[C@@H]3C2)[C@@H]2CC[C@H]2CN2C[C@@]3(CCCc4cc(Cl)ccc43)COc3ccc(cc32)C(=O)NS1(=O)=O (stereo in doubt) [Example 64]
9.54,6.35,,"C[C@@H]1[C@@H](C)C/C=C/[C@H](CN2CCN3CCOC[C@@H]3C2)[C@@H]2CC[C@H]2CN2C[C@@]3(CCCc4cc(Cl)ccc43)COc3ccc(cc32)C(=O)NS1(=O)=O (single isomer, unassigned) [Example 37]"
9.48,,6.11,"CC(=O)N1CCN2CCN(C[C@H]3CCC[C@H](C)[C@@H](C)S(=O)(=O)NC(=O)c4ccc5c(c4)N(C[C@@H]4CC[C@@H]34)C[C@@]3(CCCc4cc(Cl)ccc43)CO5)C[C@H]2C1 (single isomer, unassigned) [Example 48]"
9.08,5.45,,C[C@@H]1[C@@H](C)CCC[C@H](CN2CCN3CCNC[C@@H]3C2)[C@@H]2CC[C@H]2CN2C[C@@]3(CCCc4cc(Cl)ccc43)COc3ccc(cc32)C(=O)NS1(=O)=O (stereo in doubt) [Example 81]
9.58,6.35,,COCCN1CCN(C[C@H]2CCC[C@H](C)[C@@H](C)S(=O)(=O)NC(=O)c3ccc4c(c3)N(C[C@@H]3CC[C@@H]23)C[C@@]2(CCCc3cc(Cl)ccc32)CO4)CCC1=O (stereo in doubt) [Example 36]
7.56,,5.03,"C[C@@H]1[C@@H](C)CCC[C@@H]([C@H](O)C(F)(F)F)[C@@H]2CC[C@H]2CN2C[C@@]3(CCCc4cc(Cl)ccc43)COc3ccc(cc32)C(=O)NS1(=O)=O (single isomer, unassigned) [Example 86]"
9.35,,4.68,"C[C@@H]1[C@@H](C)CCC[C@H](C(=O)O)[C@@H]2CC[C@H]2CN2C[C@@]3(CCCc4cc(Cl)ccc43)COc3ccc(cc32)C(=O)NS1(=O)=O (single isomer, unassigned) [Example 77]"
7.94,,< 4.48,"C[C@@H]1[C@@H](C)CCC[C@@H]([C@@H](O)c2ccccc2)[C@@H]2CC[C@H]2CN2C[C@@]3(CCCc4cc(Cl)ccc43)COc3ccc(cc32)C(=O)NS1(=O)=O (single isomer, unassigned) [Example 88]"

# The next lines start with the compound.
Compound,pIC50 [1],"pIC50 ([2]; Homo sapiens, OPM-2, 16 h)",pIC50 ([2]; 16 h)
"COCCNC(=O)[C@H]1CCC[C@H](C)[C@@H](C)S(=O)(=O)NC(=O)c2ccc3c(c2)N(C[C@@H]2CC[C@H]21)C[C@@]1(CCCc2cc(Cl)ccc21)CO3 (single isomer, unassigned) [Example 11]",9.63,6.62,
"COCCN1CCN(C[C@H]2CCC[C@H](C)[C@@H](C)S(=O)(=O)NC(=O)c3ccc4c(c3)N(C[C@@H]3CC[C@@H]23)C[C@@]2(CCCc3cc(Cl)ccc32)CO4)CC1 (single isomer, unassigned) [Example 12]",9.27,,6.60
"C[C@@H]1[C@@H](C)C/C=C/[C@H](CO)[C@@H]2CC[C@H]2CN2C[C@@]3(CCCc4cc(Cl)ccc43)COc3ccc(cc32)C(=O)NS1(=O)=O (single isomer, unassigned) [Example 24]",9.65,,6.49
"COCC[C@@H]1[C@@H](C)CCC[C@H](CO)[C@@H]2CC[C@H]2CN2C[C@@]3(CCCc4cc(Cl)ccc43)COc3ccc(cc32)C(=O)NS1(=O)=O (single isomer, unassigned) [Example 29]",9.65,,6.44
C[C@@H]1[C@@H](C)CCC[C@H](CC(=O)N(C)C)[C@@H]2CC[C@H]2CN2C[C@@]3(CCCc4cc(Cl)ccc43)COc3ccc(cc32)C(=O)NS1(=O)=O (stereo in doubt) [Example 28],9.54,6.44,
"C[C@@H]1[C@@H](C)CCC[C@@H](C(=O)N2CCOCC2)[C@@H]2CC[C@H]2CN2C[C@@]3(CCCc4cc(Cl)ccc43)COc3ccc(cc32)C(=O)NS1(=O)=O (single isomer, unassigned) [Example 8]",9.90,,6.66
"C[C@@H]1[C@@H](C)CCC[C@H](CN2CC3(CCCN3C)C2)[C@@H]2CC[C@H]2CN2C[C@@]3(CCCc4cc(Cl)ccc43)COc3ccc(cc32)C(=O)NS1(=O)=O (single isomer, unassigned) [Example 16]",9.50,,6.55
"C[C@@H]1[C@@H](C)CCC[C@H](CN2CCN(C)CC2)[C@@H]2CC[C@H]2CN2C[C@@]3(CCCc4cc(Cl)ccc43)COc3ccc(cc32)C(=O)NS1(=O)=O (single isomer, unassigned) [Example 5]",9.21,,6.76
"C[C@@H]1[C@@H](C)CCC[C@H]([C@@H](C)O)[C@@H]2CC[C@H]2CN2C[C@@]3(CCCc4cc(Cl)ccc43)COc3ccc(cc32)C(=O)NS1(=O)=O (single isomer, unassigned) [Example 40]",9.09,,6.25
COCCN1CCN(C[C@H]2CCC[C@H](C)[C@@H](C)S(=O)(=O)NC(=O)c3ccc4c(c3)N(C[C@@H]3CC[C@@H]23)C[C@@]2(CCCc3cc(Cl)ccc32)CO4)CC1=O (stereo in doubt) [Example 3],9.59,6.78,
C[C@@H]1[C@@H](C)CCC[C@H](CN2CCN3CCOC[C@H]3C2)[C@@H]2CC[C@H]2CN2C[C@@]3(CCCc4cc(Cl)ccc43)COc3ccc(cc32)C(=O)NS1(=O)=O (stereo in doubt) [Example 14],9.54,6.57,
C[C@@H]1[C@@H](C)CCC[C@H](CN2CC(N(C)C)C2)[C@@H]2CC[C@H]2CN2C[C@@]3(CCCc4cc(Cl)ccc43)COc3ccc(cc32)C(=O)NS1(=O)=O (stereo in doubt) [Example 18],9.08,,6.54
"C[C@@H]1[C@@H](C)CCC[C@H](CN2CC(N(C)C)C2)[C@@H]2CC[C@H]2CN2C[C@@]3(CCCc4cc(Cl)ccc43)COc3ccc(cc32)C(=O)NS1(=O)=O (single isomer, unassigned) [Example 13]",9.11,6.59,
C[C@@H]1[C@@H](C)CCC[C@H](CN2CCN3CCN(S(C)(=O)=O)C[C@@H]3C2)[C@@H]2CC[C@H]2CN2C[C@@]3(CCCc4cc(Cl)ccc43)COc3ccc(cc32)C(=O)NS1(=O)=O (stereo in doubt) [Example 20],8.94,6.52,
"C[C@@H]1[C@@H](C)CCC[C@@H](CC(=O)N2CCN3CCOC[C@H]3C2)[C@@H]2CC[C@H]2CN2C[C@@]3(CCCc4cc(Cl)ccc43)COc3ccc(cc32)C(=O)NS1(=O)=O [Example 2, (1s,3′r,6′s,7′s,11′s,12′r)-6-chloro-7′-(2-((9ar)-hexahydropyrazino[2,1-c][1,4]oxazin-8(1h)-yl)-2-oxoethyl)-11′,12′-dimethyl-3,4-dihydro-2h,15′h-spiro[naphthalene-1,22′-[20]oxa[13]thia[1,14]diazatetracyclo[14.7.2.0˜3,6˜0.0˜19,24˜]pentacosa[16,18,24]trien]-15′-one 13′,13′-dioxide trifluoroacetic acid]",,6.87,
